Results on 1 compound are retold here after US20250212891A1, “MIXTURES AND COMPOSITIONS COMPRISING PAENIBACILLUS STRAINS OR FUSARICIDINS AND CHEMICAL PESTICIDES” (BASF SE, priority 2016, published 2025).

The subject of experiment [1] is Alternaria solani (ALTESO). Briefly: Fungal growth assay in 96 well plates. Type of experiment: cell-based. The following applies: OD 600 nm, about 18° C.
For experiment [2], the system named is Botrytis cinerea (BOTRCI). Put plainly: Fungal growth assay in 96 well plates. Type of experiment: cell-based. The following applies: evaluation 7 days after inoculation, OD 600 nm, about 18° C.; read-out: Fungal growth inhibition (IC50 [μM]) BOTRCI (7 d).
The test system of experiment [3] is Septoria tritici (SEPTTR). It is filed as in vivo. As to conditions: protective application, 360 ppm.
The subject of experiment [4] is Phytophthora infestans (PHYTIN). It is filed as in vivo. The following applies: protective application, 7.2 ppm.

Usually IC50 stands for the concentration that inhibits the measured activity by half.

Where two headings read alike, the source gives them in different places. Positions of bridges follow the written chain, without caps; N, C: chain ends. Non-standard residues stand in square brackets, D forms with d. Residues, ends and D or L forms follow the SMILES beside them. ξ: configuration not given here. *: point of attachment. Pentadecanoyl(3ξ-OH,15-Gua) = N=C(N)NCCCCCCCCCCCCC(O)CC(=O)*; Thr(3ξ) = CC(O)[C@H](N)C(=O)O; ξY = NC(Cc1ccc(O)cc1)C(=O)O

For the compound `CC1OC(=O)[C@@H](C)NC(=O)[C@@H](CCC(N)=O)NC(=O)[C@@H]([C@H](C)O)NC(=O)C(Cc2ccc(O)cc2)NC(=O)[C@@H](C(C)C)NC(=O)[C@H]1NC(=O)CC(O)CCCCCCCCCCCCN=C(N)N` (some centres unmarked) [Fusaricidin D, fusaricidin D] ({Pentadecanoyl(3ξ-OH,15-Gua)}-[Thr(3ξ)][dV][ξY][dT][dQ][dA]; ester 1-C), the half-inhibitory concentration (IC50) stood at 1.1 µM in experiment [1] (evaluation 3 days after inoculation, read-out: Fungal growth inhibition (IC50 [μM]) ALTESO (3 d)); 0.6 µM in experiment [1] (evaluation 7 days after inoculation, read-out: Fungal growth inhibition (IC50 [μM]) ALTESO (7 d)); 0.5 µM in experiment [2]. The “% efficacy (% fungal attack), head blight on wheat caused by Septoria tritici” value in experiment [3] is given as 50%. In experiment [4], the “% efficacy (% fungal attack), late blight on tomato caused by Phytophthora infestans” value turned out to be 0%.
